ChEMBL document CHEMBL1140494, “Imidazopiperidine amides as dipeptidyl peptidase IV inhibitors for the treatment of diabetes” (Bioorg Med Chem Lett, 2007)

Legend:
[1] = target: Dipeptidyl peptidase 2 (Homo sapiens, UniProt Q9UHL4); assay: Inhibition of QPP
[2] = target: Dipeptidyl peptidase 4 (Homo sapiens, UniProt P27487); assay: Inhibition of DPP4
[3] = target: Dipeptidyl peptidase 9 (Homo sapiens, UniProt Q86TI2); assay: Inhibition of DPP9
[4] = Plasma clearance in rat at 1 mg/kg, iv and 2 mg/kg, po; format: ADME, organism-based
[5] = Oral bioavailability in rat at 2 mg/kg, po; format: ADME, organism-based; settings: in vivo
[6] = Volume of distribution at steady state in rat at 1 mg/kg, iv and 2 mg/kg, po; format: ADME, organism-based; settings: in vivo, read-out: Vdss
[7] = Cmax in rat at 2 mg/kg, po; format: ADME, organism-based; set-up: dose 2 mg/kg, route oral; settings: in vivo
[8] = Half life in rat at 1 mg/kg, iv and 2 mg/kg, po; format: ADME, organism-based; settings: in vivo
[9] = target: Dipeptidyl peptidase 8 (Homo sapiens, UniProt Q6V1X1); assay: Inhibition of DPP8
Dipeptidyl peptidase 8, sequence (Q6V1X1 whole entry): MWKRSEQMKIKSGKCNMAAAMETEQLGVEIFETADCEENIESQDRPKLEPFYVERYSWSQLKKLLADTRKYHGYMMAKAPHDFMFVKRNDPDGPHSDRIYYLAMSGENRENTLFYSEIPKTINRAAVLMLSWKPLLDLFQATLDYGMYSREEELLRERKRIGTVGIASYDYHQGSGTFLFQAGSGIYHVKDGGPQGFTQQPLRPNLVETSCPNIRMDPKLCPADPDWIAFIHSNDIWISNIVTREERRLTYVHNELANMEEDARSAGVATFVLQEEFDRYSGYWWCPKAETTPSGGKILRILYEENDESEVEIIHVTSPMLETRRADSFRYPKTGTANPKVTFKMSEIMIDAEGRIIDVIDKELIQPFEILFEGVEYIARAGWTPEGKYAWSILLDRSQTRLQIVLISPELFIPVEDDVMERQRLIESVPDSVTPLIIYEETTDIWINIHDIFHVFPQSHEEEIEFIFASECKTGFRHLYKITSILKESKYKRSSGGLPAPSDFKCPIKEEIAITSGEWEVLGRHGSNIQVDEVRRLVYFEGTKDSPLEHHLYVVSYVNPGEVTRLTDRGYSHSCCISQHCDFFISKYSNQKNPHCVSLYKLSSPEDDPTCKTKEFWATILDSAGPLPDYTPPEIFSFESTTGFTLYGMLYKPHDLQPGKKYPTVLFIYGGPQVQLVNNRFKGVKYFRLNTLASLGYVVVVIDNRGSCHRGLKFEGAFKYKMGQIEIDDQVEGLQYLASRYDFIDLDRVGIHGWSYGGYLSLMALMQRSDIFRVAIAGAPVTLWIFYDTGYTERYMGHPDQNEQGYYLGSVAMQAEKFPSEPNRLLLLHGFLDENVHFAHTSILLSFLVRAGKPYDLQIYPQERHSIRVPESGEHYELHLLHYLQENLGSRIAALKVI

Dipeptidyl peptidase 9, sequence (Q86TI2 whole entry): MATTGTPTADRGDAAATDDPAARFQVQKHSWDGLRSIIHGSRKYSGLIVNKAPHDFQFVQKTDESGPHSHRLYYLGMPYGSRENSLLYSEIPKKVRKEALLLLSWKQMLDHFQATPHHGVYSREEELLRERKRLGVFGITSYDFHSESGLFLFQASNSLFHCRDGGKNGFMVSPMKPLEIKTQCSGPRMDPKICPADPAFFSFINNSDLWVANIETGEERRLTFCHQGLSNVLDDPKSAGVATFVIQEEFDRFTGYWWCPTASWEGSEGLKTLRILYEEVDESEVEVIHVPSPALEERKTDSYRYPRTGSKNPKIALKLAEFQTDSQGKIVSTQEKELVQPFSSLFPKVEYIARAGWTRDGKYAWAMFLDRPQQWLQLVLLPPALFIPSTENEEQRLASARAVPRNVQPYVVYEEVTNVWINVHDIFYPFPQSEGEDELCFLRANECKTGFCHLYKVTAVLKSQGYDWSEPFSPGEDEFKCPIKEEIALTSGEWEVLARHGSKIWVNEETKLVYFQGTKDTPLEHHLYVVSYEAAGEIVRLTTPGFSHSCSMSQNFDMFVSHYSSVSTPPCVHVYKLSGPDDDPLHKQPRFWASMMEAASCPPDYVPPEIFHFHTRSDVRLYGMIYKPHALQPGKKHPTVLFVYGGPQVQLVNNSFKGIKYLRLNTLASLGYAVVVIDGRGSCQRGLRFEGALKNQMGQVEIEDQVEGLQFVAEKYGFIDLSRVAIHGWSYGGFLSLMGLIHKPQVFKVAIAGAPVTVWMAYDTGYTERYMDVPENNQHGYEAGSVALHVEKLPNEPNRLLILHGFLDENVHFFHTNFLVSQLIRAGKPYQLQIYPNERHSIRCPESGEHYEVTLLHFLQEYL
Dipeptidyl peptidase 4, sequence (P27487 whole entry): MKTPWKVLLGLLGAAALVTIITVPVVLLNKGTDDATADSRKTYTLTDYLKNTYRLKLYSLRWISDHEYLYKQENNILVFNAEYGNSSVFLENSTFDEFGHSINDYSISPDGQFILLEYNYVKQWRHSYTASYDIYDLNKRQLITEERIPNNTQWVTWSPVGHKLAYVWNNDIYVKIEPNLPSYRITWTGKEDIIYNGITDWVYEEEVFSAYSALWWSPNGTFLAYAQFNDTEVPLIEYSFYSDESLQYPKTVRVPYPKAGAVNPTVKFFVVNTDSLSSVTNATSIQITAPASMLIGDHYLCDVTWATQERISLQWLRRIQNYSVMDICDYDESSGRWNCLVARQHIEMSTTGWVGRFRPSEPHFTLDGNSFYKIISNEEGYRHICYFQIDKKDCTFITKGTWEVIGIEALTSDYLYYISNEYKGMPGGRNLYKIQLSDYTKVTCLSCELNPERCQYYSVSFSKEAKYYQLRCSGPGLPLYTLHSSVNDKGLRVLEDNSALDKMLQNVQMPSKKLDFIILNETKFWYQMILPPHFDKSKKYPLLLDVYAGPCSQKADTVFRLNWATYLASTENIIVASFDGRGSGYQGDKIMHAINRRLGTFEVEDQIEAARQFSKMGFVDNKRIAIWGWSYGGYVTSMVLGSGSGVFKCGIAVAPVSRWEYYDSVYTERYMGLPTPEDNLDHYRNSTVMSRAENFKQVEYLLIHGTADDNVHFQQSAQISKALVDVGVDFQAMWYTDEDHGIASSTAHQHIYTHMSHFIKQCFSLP

SMILES	IC50 [1] [µM]	IC50 [2] [µM]	IC50 [3] [µM]	clearance [4] [mL/min/kg]	bioavailability [5] [%]	Vd [6] [L/kg]	Cmax [7] [nM]	half-life [8] [h]	IC50 [9] [µM]
CC1c2nc(C3CC3)n(C)c2CCN1C(=O)C[C@H](N)Cc1cc(F)c(F)cc1F (stereo not given in full) [listing 1 of 2 here]	30	–	–	–	–	–	–	–	–
N[C@@H](CC(=O)N1CCc2c(nc(C(F)(F)F)n2Cc2ccc(F)cc2)C1)Cc1cc(F)ccc1F	64	0.25	> 100	–	–	–	–	–	–
CC1c2nc(C(F)(F)F)n(C)c2CCN1C(=O)C[C@H](N)Cc1cc(F)c(F)cc1F (stereo not given in full)	39	–	> 100	81	40	8	98	1.2	–
Cn1c(C(F)(F)F)nc2c1CCN(C(=O)C[C@H](N)Cc1cc(F)ccc1F)C2	92	0.15	> 100	–	–	–	–	–	–
CCn1c(C(F)(F)F)nc2c1CCN(C(=O)C[C@H](N)Cc1cc(F)ccc1F)C2	> 100	0.18	> 100	–	–	–	–	–	–
CC(C)Cn1c(C(F)(F)F)nc2c1CCN(C(=O)C[C@H](N)Cc1cc(F)ccc1F)C2	49	0.22	> 100	–	–	–	–	–	–
N[C@@H](CC(=O)N1CCc2nc(C(F)(F)F)n(Cc3ccc(F)cc3)c2C1)Cc1cc(F)ccc1F	56	0.25	> 100	–	–	–	–	–	> 100
CC1c2nc(C3CC3)n(C)c2CCN1C(=O)C[C@H](N)Cc1cc(F)c(F)cc1F (stereo not given in full) [listing 2 of 2 here]	90	–	–	–	–	–	–	–	–
N[C@@H](CC(=O)N1CCc2[nH]c(C(F)(F)F)nc2C1)Cc1cc(F)ccc1F	> 100	0.14	–	–	–	–	–	–	–
CC(C)Cn1c(C(F)(F)F)nc2c1CN(C(=O)C[C@H](N)Cc1cc(F)ccc1F)CC2	85	0.26	> 100	–	–	–	–	–	> 100
CC1c2nc(C(F)(F)F)n(C)c2CCN1C(=O)C[C@H](N)Cc1cc(F)ccc1F (stereo in doubt; 63a)	> 100	0.19	> 100	–	–	–	–	–	–
CC1c2nc(C(F)(F)F)n(C)c2CCN1C(=O)C[C@H](N)Cc1cc(F)ccc1F (stereo in doubt; 63b)	> 100	0.065	> 100	–	–	–	–	–	–
Cn1cnc2c1CCN(C(=O)C[C@H](N)Cc1cc(F)c(F)cc1F)C2C(F)(F)F (stereo in doubt; 67a)	76	0.38	> 100	–	–	–	–	–	–
Cn1cnc2c1CCN(C(=O)C[C@H](N)Cc1cc(F)c(F)cc1F)C2C(F)(F)F (stereo in doubt; 67b)	38	0.05	> 100	93	16	8.3	50	1.4	–
Cn1c(C(F)(F)F)nc2c1CCN(C(=O)C[C@H](N)Cc1cc(F)c(F)cc1F)C2C1CC1 (stereo in doubt; 68a)	> 100	0.34	> 100	–	–	–	–	–	–
Cn1c(C(F)(F)F)nc2c1CCN(C(=O)C[C@H](N)Cc1cc(F)c(F)cc1F)C2C1CC1 (stereo in doubt; 68b)	37	0.11	> 100	–	–	–	–	–	–
CC1c2nc(C(C)(C)C)n(C)c2CCN1C(=O)C[C@H](N)Cc1cc(F)c(F)cc1F (stereo in doubt; 70a)	37	0.63	–	–	–	–	–	–	–
CC1c2nc(C(C)(C)C)n(C)c2CCN1C(=O)C[C@H](N)Cc1cc(F)c(F)cc1F (stereo in doubt; 70b)	19	0.37	–	–	–	–	–	–	–
Cn1c(C(F)(F)F)nc2c1CCN(C(=O)C[C@H](N)Cc1cc(F)c(F)cc1F)C2Cc1ccccc1 (stereo in doubt; 71a)	46	0.57	> 100	–	–	–	–	–	–
Cn1c(C(F)(F)F)nc2c1CCN(C(=O)C[C@H](N)Cc1cc(F)c(F)cc1F)C2Cc1ccccc1 (stereo in doubt; 71b)	20	0.0084	> 100	64	16	6.5	72	1.5	–
Cn1c(C(F)(F)F)nc2c1CCN(C(=O)C[C@H](N)Cc1cc(F)c(F)cc1F)C2Cc1ccc(F)cc1 (stereo in doubt; 72a)	39	0.78	> 100	–	–	–	–	–	–
Cn1c(C(F)(F)F)nc2c1CCN(C(=O)C[C@H](N)Cc1cc(F)c(F)cc1F)C2Cc1ccc(F)cc1 (stereo in doubt; 72b)	15	0.0058	> 100	–	–	–	–	–	–
